From PMC9898036, “VIP152 is a selective CDK9 inhibitor with pre-clinical in vitro and in vivo efficacy in chronic lymphocytic leukemia” (Leukemia, 2022)

Experiments:
FLT3(R834Q) = FLT3(R834Q) (Homo sapiens, UniProt P36888, R834Q); assay: KINOMEscan: FLT3(R834Q); format: binding; conditions: 1000 nM, read-out: Percent Control
EPHA3 = EPHA3 (Homo sapiens, UniProt P29320); assay: KINOMEscan: EPHA3; format: binding; conditions: 1000 nM, read-out: Percent Control
ASK2 = ASK2 (Homo sapiens, UniProt O95382); assay: KINOMEscan: ASK2; format: binding; conditions: 1000 nM, read-out: Percent Control
PFPK5(P.falciparum) = PFPK5(P.falciparum) (Plasmodium falciparum, UniProt P61075); assay: DiscoverX KINOMEscan kinase profiling; format: binding; conditions: kinase PFPK5(P.falciparum) (Entrez MAL13P1.279); compound concentration 1000 nM; read-out: Percent Control
TRPM6 = TRPM6 (Homo sapiens, UniProt Q9BX84); assay: KINOMEscan: TRPM6; format: binding; conditions: 100 nM, read-out: Percent Control
LTK = LTK (Homo sapiens, UniProt P29376); assay: KINOMEscan: LTK; format: binding; conditions: 1000 nM, read-out: Percent Control
TRKA = TRKA (Homo sapiens, UniProt P04629); assay: KINOMEscan: TRKA; format: binding; conditions: 100 nM, read-out: Percent Control
TRKA, sequence (P04629 33-796): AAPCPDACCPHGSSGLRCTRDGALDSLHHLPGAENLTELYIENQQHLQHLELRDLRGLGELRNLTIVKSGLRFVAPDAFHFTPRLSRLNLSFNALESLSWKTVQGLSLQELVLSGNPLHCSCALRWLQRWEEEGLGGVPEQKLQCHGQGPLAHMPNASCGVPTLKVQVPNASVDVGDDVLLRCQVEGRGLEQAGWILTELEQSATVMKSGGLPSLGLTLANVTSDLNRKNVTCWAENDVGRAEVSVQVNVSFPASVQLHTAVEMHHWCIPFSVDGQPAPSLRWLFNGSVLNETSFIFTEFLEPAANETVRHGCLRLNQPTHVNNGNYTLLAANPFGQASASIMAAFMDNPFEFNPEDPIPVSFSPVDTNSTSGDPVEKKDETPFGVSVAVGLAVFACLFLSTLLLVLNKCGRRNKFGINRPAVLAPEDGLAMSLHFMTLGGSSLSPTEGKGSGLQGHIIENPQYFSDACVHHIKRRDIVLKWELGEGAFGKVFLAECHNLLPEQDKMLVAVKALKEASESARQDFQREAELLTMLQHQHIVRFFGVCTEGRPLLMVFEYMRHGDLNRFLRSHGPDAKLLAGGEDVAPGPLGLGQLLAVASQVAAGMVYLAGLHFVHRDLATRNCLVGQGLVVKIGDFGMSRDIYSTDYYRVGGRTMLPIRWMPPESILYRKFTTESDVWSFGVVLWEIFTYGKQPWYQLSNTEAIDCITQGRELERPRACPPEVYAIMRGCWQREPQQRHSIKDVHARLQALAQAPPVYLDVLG

Opiate κ(OP2, KOP) = Opiate κ(OP2, KOP) (Homo sapiens, UniProt P41145); assay: Eurofins Diversity Panel; format: binding; conditions: hum, Conc. 10 μM
LATS2 = LATS2 (Homo sapiens, UniProt Q9NRM7); assay: KINOMEscan: LATS2; format: binding; conditions: 1000 nM, read-out: Percent Control
LATS2, sequence (Q9NRM7 whole entry): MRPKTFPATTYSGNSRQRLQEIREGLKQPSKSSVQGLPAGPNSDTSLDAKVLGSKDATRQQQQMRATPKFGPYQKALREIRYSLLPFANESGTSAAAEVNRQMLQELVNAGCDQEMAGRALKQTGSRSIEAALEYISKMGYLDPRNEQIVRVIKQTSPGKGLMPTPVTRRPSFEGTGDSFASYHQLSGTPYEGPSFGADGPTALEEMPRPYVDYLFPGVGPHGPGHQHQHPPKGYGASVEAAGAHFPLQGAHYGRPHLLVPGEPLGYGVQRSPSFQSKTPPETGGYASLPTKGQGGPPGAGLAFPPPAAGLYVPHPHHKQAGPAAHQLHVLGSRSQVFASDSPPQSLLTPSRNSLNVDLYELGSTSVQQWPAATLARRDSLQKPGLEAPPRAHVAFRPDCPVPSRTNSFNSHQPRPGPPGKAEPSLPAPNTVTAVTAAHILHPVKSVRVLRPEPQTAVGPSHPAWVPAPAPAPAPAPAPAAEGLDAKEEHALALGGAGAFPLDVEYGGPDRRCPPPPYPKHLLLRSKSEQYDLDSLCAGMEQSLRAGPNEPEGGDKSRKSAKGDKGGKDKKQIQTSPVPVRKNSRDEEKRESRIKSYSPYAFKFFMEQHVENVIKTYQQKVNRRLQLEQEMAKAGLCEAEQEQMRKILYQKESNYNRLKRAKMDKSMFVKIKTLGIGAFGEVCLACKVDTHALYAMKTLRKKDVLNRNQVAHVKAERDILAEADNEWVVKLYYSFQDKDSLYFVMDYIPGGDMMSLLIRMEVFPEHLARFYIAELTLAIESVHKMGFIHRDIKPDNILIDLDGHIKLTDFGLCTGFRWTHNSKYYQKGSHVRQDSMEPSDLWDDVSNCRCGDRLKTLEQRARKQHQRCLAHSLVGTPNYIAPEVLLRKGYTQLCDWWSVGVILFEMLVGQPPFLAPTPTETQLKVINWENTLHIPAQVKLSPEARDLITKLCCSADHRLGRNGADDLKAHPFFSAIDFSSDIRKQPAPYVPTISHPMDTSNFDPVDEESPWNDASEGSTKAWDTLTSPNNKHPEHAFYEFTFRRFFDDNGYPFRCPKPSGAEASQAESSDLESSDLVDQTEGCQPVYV

CDC2L1 = CDC2L1 (Homo sapiens, UniProt P21127); assay: KINOMEscan: CDC2L1; format: binding; conditions: 1000 nM, read-out: Percent Control
CDC2L1, sequence (P21127 whole entry): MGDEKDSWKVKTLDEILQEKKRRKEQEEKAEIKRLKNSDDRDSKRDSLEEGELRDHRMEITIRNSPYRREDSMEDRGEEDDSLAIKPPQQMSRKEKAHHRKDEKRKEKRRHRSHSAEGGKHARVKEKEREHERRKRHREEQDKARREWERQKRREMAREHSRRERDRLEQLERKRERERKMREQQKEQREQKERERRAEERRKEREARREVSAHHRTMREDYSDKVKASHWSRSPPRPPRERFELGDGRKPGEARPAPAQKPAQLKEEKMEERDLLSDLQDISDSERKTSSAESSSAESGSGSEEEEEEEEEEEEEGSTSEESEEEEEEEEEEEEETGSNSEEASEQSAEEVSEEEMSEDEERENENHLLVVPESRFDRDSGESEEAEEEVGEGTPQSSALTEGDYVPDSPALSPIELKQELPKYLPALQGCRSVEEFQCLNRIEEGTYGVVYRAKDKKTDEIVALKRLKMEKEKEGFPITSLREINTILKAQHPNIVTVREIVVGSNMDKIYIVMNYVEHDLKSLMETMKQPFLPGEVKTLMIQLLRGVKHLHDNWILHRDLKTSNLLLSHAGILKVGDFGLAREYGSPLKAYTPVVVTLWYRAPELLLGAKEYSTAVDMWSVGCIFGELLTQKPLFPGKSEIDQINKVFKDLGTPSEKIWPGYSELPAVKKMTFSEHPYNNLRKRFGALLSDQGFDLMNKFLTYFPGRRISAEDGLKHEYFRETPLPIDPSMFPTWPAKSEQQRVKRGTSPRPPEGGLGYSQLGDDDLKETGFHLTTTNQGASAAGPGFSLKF

S6K1 = S6K1 (Homo sapiens, UniProt P23443); assay: KINOMEscan: S6K1; format: binding; conditions: 100 nM, read-out: Percent Control
S6K1, sequence (P23443 whole entry): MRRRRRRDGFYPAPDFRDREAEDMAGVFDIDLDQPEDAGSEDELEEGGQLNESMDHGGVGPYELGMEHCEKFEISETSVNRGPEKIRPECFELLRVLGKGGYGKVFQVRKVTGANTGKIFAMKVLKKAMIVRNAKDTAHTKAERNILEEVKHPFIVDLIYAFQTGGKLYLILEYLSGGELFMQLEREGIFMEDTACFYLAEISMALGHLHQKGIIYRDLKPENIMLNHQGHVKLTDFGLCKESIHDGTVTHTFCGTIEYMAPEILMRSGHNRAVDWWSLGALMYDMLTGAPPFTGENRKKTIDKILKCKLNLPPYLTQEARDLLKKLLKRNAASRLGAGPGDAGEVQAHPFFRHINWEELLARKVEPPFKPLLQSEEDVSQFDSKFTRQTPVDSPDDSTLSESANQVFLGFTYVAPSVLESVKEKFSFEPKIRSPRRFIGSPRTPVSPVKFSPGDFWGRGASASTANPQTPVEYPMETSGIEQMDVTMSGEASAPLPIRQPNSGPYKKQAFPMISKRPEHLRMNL

MAP4K4 = MAP4K4 (Homo sapiens, UniProt O95819); assay: KINOMEscan: MAP4K4; format: binding; conditions: 1000 nM, read-out: Percent Control
[1] = target: Platelet Activating Factor (PAF) (Homo sapiens, UniProt P25105); assay: Eurofins Diversity Panel; format: binding; conditions: hum, Conc. 10 μM
GRK1 = GRK1 (Homo sapiens, UniProt Q15835); assay: KINOMEscan: GRK1; format: binding; conditions: 1000 nM, read-out: Percent Control
GRK1, sequence (Q15835 whole entry): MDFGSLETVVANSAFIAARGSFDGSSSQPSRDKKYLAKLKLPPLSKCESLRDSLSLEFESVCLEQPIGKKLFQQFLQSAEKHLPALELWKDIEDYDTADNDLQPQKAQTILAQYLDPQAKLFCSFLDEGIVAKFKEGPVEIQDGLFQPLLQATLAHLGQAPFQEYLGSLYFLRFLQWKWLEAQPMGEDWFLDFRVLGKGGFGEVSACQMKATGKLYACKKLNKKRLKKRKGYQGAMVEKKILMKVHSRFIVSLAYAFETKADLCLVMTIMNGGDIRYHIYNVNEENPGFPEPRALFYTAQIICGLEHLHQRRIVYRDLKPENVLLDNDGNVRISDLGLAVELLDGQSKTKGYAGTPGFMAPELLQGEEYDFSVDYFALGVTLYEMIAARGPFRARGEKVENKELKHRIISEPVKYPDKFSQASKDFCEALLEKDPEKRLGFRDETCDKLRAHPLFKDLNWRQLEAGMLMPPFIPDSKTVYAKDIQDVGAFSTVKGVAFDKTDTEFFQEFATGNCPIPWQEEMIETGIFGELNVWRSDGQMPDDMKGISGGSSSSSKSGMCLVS

DRAK2 = DRAK2 (Homo sapiens, UniProt O94768); assay: KINOMEscan: DRAK2; format: binding; conditions: 1000 nM, read-out: Percent Control
YSK4 = YSK4 (Homo sapiens, UniProt Q56UN5); assay: KINOMEscan: YSK4; format: binding; conditions: 100 nM, read-out: Percent Control
FLT3(ITD,F691L) = FLT3(ITD,F691L) (Homo sapiens, UniProt P36888, F691L/ITD); assay: biochemical; parameters: DiscoverX KINOMEscan kinase panel, per cent of control (100 = no effect), single concentrations; conditions: per cent of control, KINOMEscan; read-out: Percent Control
Experimental: (§1) The structure and synthesis of VIP152 were recently described by Lücking et al.. (Fig. 1A); however, the selectivity of the molecule in cellular systems has yet to be explored. […] We also performed this experiment at 1000 nM, where CDK9 was inhibited at 99%. […] We found a strong concordance between our data and those of Lücking when comparing the most inhibited kinases. Potential off-target effects of VIP152 were next tested in vitro at a concentration of 10 µM for off-target activity against a broad range of receptors, transporters, ion channels, and enzymes (n = 138) using the Eurofins Diversity Panel. […] A Chemical structure of VIP152.

FLT3(ITD) = FLT3(ITD) (Homo sapiens, UniProt P36888, ITD); assay: biochemical; parameters: DiscoverX KINOMEscan kinase panel, per cent of control (100 = no effect), single concentrations; conditions: per cent of control, KINOMEscan; read-out: Percent Control
Experimental: as §1

FLT3(ITD,D835V) = FLT3(ITD,D835V) (Homo sapiens, UniProt P36888, D835V/ITD); assay: biochemical; parameters: DiscoverX KINOMEscan kinase panel, per cent of control (100 = no effect), single concentrations; conditions: per cent of control, KINOMEscan; read-out: Percent Control
Experimental: as §1

[2] = target: EGFR(L747-E749del, A750P) (Homo sapiens, UniProt P00533, A750P/DEL747-749); assay: biochemical; parameters: DiscoverX KINOMEscan kinase panel, per cent of control (100 = no effect), single concentrations; conditions: per cent of control, KINOMEscan; read-out: Percent Control
Experimental: as §1

EGFR(L747-T751del,Sins) = EGFR(L747-T751del,Sins) (Homo sapiens, UniProt P00533, DEL747-750/T751S); assay: biochemical; parameters: DiscoverX KINOMEscan kinase panel, per cent of control (100 = no effect), single concentrations; conditions: per cent of control, KINOMEscan; read-out: Percent Control
EGFR(L747-T751del,Sins), sequence (P00533 with tags, fused parts or gaps DEL747-750/T751S): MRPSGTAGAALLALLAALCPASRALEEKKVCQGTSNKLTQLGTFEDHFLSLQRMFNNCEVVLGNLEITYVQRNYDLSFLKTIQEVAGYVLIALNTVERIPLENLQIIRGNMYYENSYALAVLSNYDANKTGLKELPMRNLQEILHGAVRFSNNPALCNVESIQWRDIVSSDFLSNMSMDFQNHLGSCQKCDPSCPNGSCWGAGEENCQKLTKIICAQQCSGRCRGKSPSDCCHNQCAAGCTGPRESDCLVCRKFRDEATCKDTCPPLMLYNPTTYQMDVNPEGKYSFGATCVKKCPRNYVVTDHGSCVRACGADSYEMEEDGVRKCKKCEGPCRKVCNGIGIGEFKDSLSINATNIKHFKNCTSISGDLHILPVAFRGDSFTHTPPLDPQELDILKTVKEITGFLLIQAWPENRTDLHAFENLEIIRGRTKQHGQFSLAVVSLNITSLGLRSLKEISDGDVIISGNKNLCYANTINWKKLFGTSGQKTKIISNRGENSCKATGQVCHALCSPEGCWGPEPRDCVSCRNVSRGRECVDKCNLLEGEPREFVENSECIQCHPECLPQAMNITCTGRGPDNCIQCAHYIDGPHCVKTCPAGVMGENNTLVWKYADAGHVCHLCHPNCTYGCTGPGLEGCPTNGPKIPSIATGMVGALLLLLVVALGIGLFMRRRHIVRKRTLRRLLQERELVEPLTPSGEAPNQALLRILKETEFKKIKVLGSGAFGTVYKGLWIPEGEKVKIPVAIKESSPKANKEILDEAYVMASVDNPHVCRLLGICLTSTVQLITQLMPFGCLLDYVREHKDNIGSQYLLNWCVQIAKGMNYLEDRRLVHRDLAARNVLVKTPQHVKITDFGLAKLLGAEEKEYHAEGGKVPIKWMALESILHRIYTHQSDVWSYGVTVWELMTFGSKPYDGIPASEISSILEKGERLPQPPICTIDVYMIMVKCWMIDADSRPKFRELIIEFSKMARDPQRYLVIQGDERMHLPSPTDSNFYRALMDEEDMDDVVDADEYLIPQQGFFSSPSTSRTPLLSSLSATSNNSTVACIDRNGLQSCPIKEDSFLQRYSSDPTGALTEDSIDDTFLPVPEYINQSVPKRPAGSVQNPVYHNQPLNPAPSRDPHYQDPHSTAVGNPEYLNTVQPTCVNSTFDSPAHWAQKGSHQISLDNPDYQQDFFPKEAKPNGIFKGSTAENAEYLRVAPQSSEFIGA
Experimental: as §1

[3] = target: EGFR(L747-S752del, P753S) (Homo sapiens, UniProt P00533, DEL747-752/P753S); assay: biochemical; parameters: DiscoverX KINOMEscan kinase panel, per cent of control (100 = no effect), single concentrations; conditions: per cent of control, KINOMEscan; read-out: Percent Control
Experimental: as §1

COc1cc(F)ccc1-c1cc(Nc2cc(CS(C)(=N)=O)ccn2)ncc1F (stereo not shown) [VIP152]
remaining binding at 1 µM (FLT3(R834Q)): 78%
remaining binding at 1 µM (EPHA3): 89%
remaining binding at 1 µM (ASK2): 91%
remaining binding at 1 µM (PFPK5(P.falciparum)): 99%
remaining binding at 0.1 µM (TRPM6): 100%
remaining binding at 1 µM (LTK): 100%
remaining binding at 0.1 µM (TRKA): 65%
inhibition at 10 µM (Opiate κ(OP2, KOP)): 8%
remaining binding at 1 µM (LATS2): 97%
remaining binding at 1 µM (CDC2L1): 96%
remaining binding at 0.1 µM (S6K1): 96%
remaining binding at 1 µM (MAP4K4): 44%
inhibition at 10 µM [1]: 6%
remaining binding at 1 µM (GRK1): 88%
remaining binding at 1 µM (DRAK2): 100%
remaining binding at 0.1 µM (YSK4): 100%
remaining binding at 0.1 µM (FLT3(ITD,F691L)): 99%
remaining binding at 0.1 µM (FLT3(ITD)): 100%
remaining binding at 0.1 µM (FLT3(ITD,D835V)): 100%
remaining binding at 0.1 µM [2]: 100%
remaining binding at 0.1 µM (EGFR(L747-T751del,Sins)): 100%
remaining binding at 0.1 µM [3]: 93%
